The structures appear in SMILES notation.

The target in this assay is T1, USP28 (His-tagged USP28-FL-mammalian) (Homo sapiens, UniProt Q96RU2).
T1 construct: Expression of USP28 (1-1077)-TEV-6*His (pTT5 vector); made in house; host or cells: Expi293f cells (pTT5 vector)
T1 sequence (Q96RU2 1-1077): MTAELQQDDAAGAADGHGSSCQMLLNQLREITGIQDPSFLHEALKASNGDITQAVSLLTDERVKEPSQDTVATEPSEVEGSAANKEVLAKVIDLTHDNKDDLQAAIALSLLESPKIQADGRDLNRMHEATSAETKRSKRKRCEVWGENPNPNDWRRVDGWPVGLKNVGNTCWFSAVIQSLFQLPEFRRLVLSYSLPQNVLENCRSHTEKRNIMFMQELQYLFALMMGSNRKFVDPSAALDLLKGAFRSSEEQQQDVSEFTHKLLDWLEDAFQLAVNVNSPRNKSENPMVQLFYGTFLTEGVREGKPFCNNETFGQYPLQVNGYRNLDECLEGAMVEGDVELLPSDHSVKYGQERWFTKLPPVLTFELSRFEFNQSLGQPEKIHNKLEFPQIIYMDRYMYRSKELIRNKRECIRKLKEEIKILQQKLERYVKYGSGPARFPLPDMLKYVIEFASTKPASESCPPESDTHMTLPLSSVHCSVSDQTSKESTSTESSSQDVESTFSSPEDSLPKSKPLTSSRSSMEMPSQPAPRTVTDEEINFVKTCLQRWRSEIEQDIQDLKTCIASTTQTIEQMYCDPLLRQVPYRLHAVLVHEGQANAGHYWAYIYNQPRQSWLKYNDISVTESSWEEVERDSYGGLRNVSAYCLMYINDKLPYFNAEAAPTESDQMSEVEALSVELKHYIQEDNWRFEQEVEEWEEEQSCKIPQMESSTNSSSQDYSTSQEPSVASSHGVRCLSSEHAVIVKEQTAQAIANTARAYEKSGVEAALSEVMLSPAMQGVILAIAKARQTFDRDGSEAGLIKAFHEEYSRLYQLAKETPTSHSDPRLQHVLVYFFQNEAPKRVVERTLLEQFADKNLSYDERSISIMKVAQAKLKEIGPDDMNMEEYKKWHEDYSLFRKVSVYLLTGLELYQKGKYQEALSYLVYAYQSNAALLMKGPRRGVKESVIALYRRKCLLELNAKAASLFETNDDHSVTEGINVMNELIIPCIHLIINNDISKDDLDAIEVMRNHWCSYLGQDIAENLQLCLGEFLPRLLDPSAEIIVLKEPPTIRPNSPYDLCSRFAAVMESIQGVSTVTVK
In words: Ubiquitin-Rhodamine 110 Assay for USP28 Activity, Example A-1(a). The format is biochemical. As to conditions: Ubiquitin-Rhodamine 110 assay, Example A-1(a); read-out: USP28 A-1(a) IC50 range. In outline: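 IC50 from 4-parameter logistic fit of percent inhibition versus no-enzyme and DMSO controls; compounds 25 μM to 1.3 nM, 3-fold. Ub-Rh110 cleavage (25 nM, below Km) by […] mammalian-expressed USP28-FL-His ran 45 min at room temperature, stopped with 10 mM citric acid, read ex 485/em 535.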
One may read the IC50 as the point on the concentration scale where inhibition reaches its midpoint. As to `O=C(N[C@H]1COc2cc(N3CCNCC3)ccc2C1)c1ccc(NCc2cccnc2)nc1` [Example 468, (R)-N-(7-(piperazin-1-yl)chroman-3-yl)-6-((pyridin-3-ylmethyl)amino)nicotinamide], the IC50 lay in the range of 200 to 2000 nM. Turning to `Cc1ccc2c(N)c(C(=O)N[C@H]3COc4cc(N5CC6COCC(C5)C6(F)F)ccc4C3)sc2n1` [Example 5-4, 3-amino-N-((3R)-7-(9,9-difluoro-3-oxa-7-azabicyclo[3.3.1]nonan-7-yl)chroman-3-yl)-6-methylthieno[2,3-b]pyridine-2-carboxamide], the half-inhibitory concentration (IC50) is 1 to 50 nM. As to `Cc1ccc2c(N)c(C(=O)N[C@H]3CCc4nc(N5C[C@@H](N)[C@]6(CCCO6)C5)ccc4C3)sc2n1` [Example 391, 3-amino-N-[(6S)-2-[(5S,9R)-9-amino-1-oxa-7-azaspiro[4.4]nonan-7-yl]-5,6,7,8-tetrahydroquinolin-6-yl]-6-methylthieno[2,3-b]pyridine-2-carboxamide], the half-inhibitory concentration (IC50) fell in the range of 50 to 200 nM.

For `CCn1ccc2cc(C(=O)N[C@H]3CCc4nc(N5C[C@H](OC)[C@@H](N)C5)ccc4C3)cnc21` [Example 353, N-[(6S)-2-[(3S,4S)-3-amino-4-methoxypyrrolidin-1-yl]-5,6,7,8-tetrahydroquinolin-6-yl]-1-ethyl-1H-pyrrolo[2,3-b]pyridine-5-carboxamide], the half-maximal inhibitory concentration (IC50) was 200 to 2000 nM. With `Cc1ccc2c(N)c(C(=O)N[C@H]3CCc4nc(N5C[C@H](N)[C@@H](C(F)(F)F)C5)ccc4C3)sc2n1` [Example 363, 3-amino-N-[(6S)-2-[(3R,4S)-3-amino-4-(trifluoromethyl)pyrrolidin-1-yl]-5,6,7,8-tetrahydroquinolin-6-yl]-6-methylthieno[2,3-b]pyridine-2-carboxamide], the half-maximal inhibitory concentration (IC50) was in the range of 50 to 200 nM. The result for `Cc1ccc2c(N)c(C(=O)N[C@H]3COc4cc(N5C[C@@H](N)[C@H](F)C5)ccc4C3)sc2n1` [Example 3-8, 3-amino-N-((R)-7-((3R,4R)-3-amino-4-fluoropyrrolidin-1-yl)chroman-3-yl)-6-methylthieno[2,3-b]pyridine-2-carboxamide] reads 1 to 50 nM; that for `Cc1cnc2c(N)c(C(=O)N[C@H]3CCc4cc(N5CC6COCC(C5)N6)ccc4C3)sc2n1` [Example 456, N-((2S)-6-(3-oxa-7,9-diazabicyclo[3.3.1]nonan-7-yl)-1,2,3,4-tetrahydronaphthalen-2-yl)-7-amino-3-methylthieno[2,3-b]pyrazine-6-carboxamide], 50 to 200 nM; that for `Cc1ccc2c(N)c(C(=O)N[C@H]3COc4cc(N5CC6CNC[C@@](C)(C5)O6)cc(F)c4C3)sc2n1` [Example 414, 3-amino-N-[(3R)-5-fluoro-7-[(1S)-1-methyl-9-oxa-3,7-diazabicyclo[3.3.1]nonan-3-yl]-3,4-dihydro-2H-1-benzopyran-3-yl]-6-methylthieno[2,3-b]pyridine-2-carboxamide], 50 to 200 nM. `Cc1ccc2c(N)c(C(=O)N[C@@H]3COc4c(cc(F)c(N5CCNCC5)c4F)C3)sc2n1` (single isomer, unassigned) [Example 3-18]: the 50% inhibitory concentration (IC50) lay within 200 to 2000 nM. As to `Cc1ccn2ncc(C(=O)N[C@H]3COc4cc(N5CCNCC5)ccc4C3)c2c1` [Example 465, (R)-5-methyl-N-(7-(piperazin-1-yl)chroman-3-yl)pyrazolo[1,5-a]pyridine-3-carboxamide], the IC50 is greater than 2000 nM. As for `Cc1ccc2c(N)c(C(=O)N[C@H]3CCc4nc(N5C[C@H](N)[C@H](OC(C)(F)F)C5)ccc4C3)sc2n1` [Example 357, 3-amino-N-[(6S)-2-[(3S,4R)-3-amino-4-(1,1-difluoroethoxy)pyrrolidin-1-yl]-5,6,7,8-tetrahydroquinolin-6-yl]-6-methylthieno[2,3-b]pyridine-2-carboxamide], the half-inhibitory concentration (IC50) is 50 to 200 nM. The result for `O=C(N[C@H]1COc2cc(N3CCNCC3)ccc2C1)c1ccc(NCc2ccc3c(c2)OCCO3)nc1` [Example 471, (R)-6-(((2,3-dihydrobenzo[b][1,4]dioxin-6-yl)methyl)amino)-N-(7-(piperazin-1-yl)chroman-3-yl)nicotinamide] reads 200 to 2000 nM; that for `COC[C@H]1CN(c2ccc3c(n2)OC[C@H](NC(=O)c2sc4nc(C)cc(C)c4c2N)C3)C[C@H]1N` [Example 349, 3-amino-N-[(3R)-7-[(3S,4S)-3-amino-4-(methoxymethyl)pyrrolidin-1-yl]-2H,3H,4H-pyrano[2,3-b]pyridin-3-yl]-4,6-dimethylthieno[2,3-b]pyridine-2-carboxamide], 50 to 200 nM; that for `Cc1ccc2c(N)c(C(=O)N[C@H]3CCc4nc(N5C[C@H](N)[C@@]6(CCCO6)C5)ccc4C3)sc2n1` [Example 393, 3-amino-N-[(6S)-2-[(5R,9S)-9-amino-1-oxa-7-azaspiro[4.4]nonan-7-yl]-5,6,7,8-tetrahydroquinolin-6-yl]-6-methylthieno[2,3-b]pyridine-2-carboxamide], 50 to 200 nM. On to `O=C(N[C@H]1COc2cc(N3CCNCC3)ccc2C1)c1ccc(NCc2cccc(Cl)c2)nc1` [Example 467, (R)-6-((3-chlorobenzyl)amino)-N-(7-(piperazin-1-yl)chroman-3-yl)nicotinamide], for which the concentration for half-maximal inhibition (IC50) was in the range of 200 to 2000 nM. On to `COc1ccn2ncc(C(=O)N[C@H]3COc4cc(N5CCNCC5)ccc4C3)c2c1` [Example 461, (R)-5-methoxy-N-(7-(piperazin-1-yl)chroman-3-yl)pyrazolo[1,5-a]pyridine-3-carboxamide], for which the IC50 is greater than 2000 nM. The result for `Cc1ccc2c(N)c(C(=O)N[C@H]3COc4cc(N5C[C@H](N)[C@@H](F)C5)ccc4C3)sc2n1` [Example 3-7, 3-amino-N-((R)-7-((3S,4S)-3-amino-4-fluoropyrrolidin-1-yl)chroman-3-yl)-6-methylthieno[2,3-b]pyridine-2-carboxamide] reads 1 to 50 nM; that for `Cc1ccc2c(N)c(C(=O)N[C@H]3COc4cc(N5CC[C@]6(CCCNC6)C5)ccc4C3)sc2n1` [Example 3-13, N-((R)-7-((S)-2,7-diazaspiro[4.5]decan-2-yl)chroman-3-yl)-3-amino-6-methylthieno[2,3-b]pyridine-2-carboxamide], 1 to 50 nM. The result for `Cc1cnc2c(N)c(C(=O)N[C@H]3CCc4cc(N5CC6CNCC(C5)O6)ccc4C3)sc2n1` [Example 448, N-((2S)-6-(9-oxa-3,7-diazabicyclo[3.3.1]nonan-3-yl)-1,2,3,4-tetrahydronaphthalen-2-yl)-7-amino-3-methylthieno[2,3-b]pyrazine-6-carboxamide] reads 1 to 50 nM; that for `O=C(N[C@H]1COc2cc(N3CCNCC3)ccc2C1)c1cnn2cccnc12` [Example 466, (R)-N-(7-(piperazin-1-yl)chroman-3-yl)pyrazolo[1,5-a]pyrimidine-3-carboxamide], greater than 2000 nM. As for `Cc1cnc2c(N)c(C(=O)N[C@H]3CCc4nc(N5C[C@H](N)C6(COC6)C5)ccc4C3)sc2n1` [Example 365, 7-amino-N-[(6S)-2-[(8R)-8-amino-2-oxa-6-azaspiro[3.4]octan-6-yl]-5,6,7,8-tetrahydroquinolin-6-yl]-3-methylthieno[2,3-b]pyrazine-6-carboxamide], the half-inhibitory concentration (IC50) is 1 to 50 nM. As for `CCn1cc(Cl)c2cc(C(=O)N[C@H]3COc4c(C#N)c(N5CC6CCC(C5)N6)cc(F)c4C3)nnc21` [Example 356, 5-chloro-N-[(3R)-8-cyano-7-{3,8-diazabicyclo[3.2.1]octan-3-yl}-5-fluoro-3,4-dihydro-2H-1-benzopyran-3-yl]-7-ethyl-7H-pyrrolo[2,3-c]pyridazine-3-carboxamide], the IC50 lay within 200 to 2000 nM. Turning to `Cc1ccc2c(N)c(C(=O)N[C@H]3CCc4nc(N5C[C@H](C(F)F)[C@@H](N)C5)ccc4C3)sc2n1` [Example 347, 3-amino-N-[(6S)-2-[(3R,4S)-3-amino-4-(difluoromethyl)pyrrolidin-1-yl]-5,6,7,8-tetrahydroquinolin-6-yl]-6-methylthieno[2,3-b]pyridine-2-carboxamide], the IC50 lay in the range of 50 to 200 nM.

Consider `Cc1ccc2c(N)c(C(=O)N[C@H]3COc4cc(N5C[C@H](OC(F)(F)F)[C@@H](N)C5)ccc4C3)sc2n1` (single isomer, unassigned) [Example 3-10], for which the half-inhibitory concentration (IC50) fell in the range of 50 to 200 nM.

The values above are taken from patent US11524966B1 (Valo Early Discovery, Inc., priority 2017, dated 2022).
